From article PMC6196722 (Xenobiotica; the fate of foreign compounds in biological …, 2017)

What was measured:
[1] = molecular target: SULT1B1-WT (6xHis tagged) (Homo sapiens, UniProt O43704, L145V); test: intrinsic fluorescence titration; type: binding
[2] = molecular target: SULT1B1-WT (6xHis tagged) (Homo sapiens, UniProt O43704); test: intrinsic fluorescence titration; type: binding
Sequence of SULT1B1-WT (6xHis tagged) (Homo sapiens, UniProt O43704) (O43704 whole entry): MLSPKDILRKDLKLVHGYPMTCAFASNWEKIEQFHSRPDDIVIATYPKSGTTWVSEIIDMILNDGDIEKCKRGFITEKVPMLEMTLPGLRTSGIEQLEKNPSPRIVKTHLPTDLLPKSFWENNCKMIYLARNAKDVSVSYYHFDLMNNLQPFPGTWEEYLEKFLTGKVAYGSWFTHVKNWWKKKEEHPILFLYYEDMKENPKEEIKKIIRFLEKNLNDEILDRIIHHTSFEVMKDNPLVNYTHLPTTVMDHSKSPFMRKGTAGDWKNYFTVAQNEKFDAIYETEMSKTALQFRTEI

Sequence of SULT1B1-WT (6xHis tagged) (Homo sapiens, UniProt O43704, L145V) (O43704 whole entry L145V): as the sequence (O43704 whole entry) above, with L145V counted along it

Row | Kd [1] | Kd [2] | Compound
1 | 405 nM | – | Nc1ncnc2c1ncn2[C@@H]1O[C@H](COP(=O)(O)O)[C@@H](OP(=O)(O)O)[C@H]1O [PAP]
2 | 980 nM | 872 nM | Nc1ncnc2c1ncn2[C@@H]1O[C@H](COP(=O)(O)OS(=O)(=O)O)[C@@H](OP(=O)(O)O)[C@H]1O [PAPS]
